Tested on: H460 tumor bearing mice
Experiment: Biodistribution in H460 tumor bearing mice
Format: in vivo, NMRI (nu/nu) mice
Details: for summary: urine: in %; for summary: carcass / summary: organs / summary: recovery: in % (unit assumed)
Description: Biodistribution in H460 tumor bearing mice. To test the pharmacokinetic properties of (2S)-2-amino-5-[3-[^18F]fluoropropyl]hexanedioic acid, the fluorinated compound was examined in H460 tumor bearing mice. NMRI (nu/nu) mice were inoculated with H460 tumor cells 8 to 10 days before the biodistribution studies. 185 kBq of activity of the fluorinated compound was injected into each mouse. n=3 mice were used at every time point. After injection of the F18-labeled compound, mice were sacrificed at the timepoints indicated. All organs were removed and radioactivity was determined using a γ-counter. […] Clearance of radioactivity takes place via the kidneys, with 67.9% of activity being excreted at 1 h p.i.

[1] = 1 h p.i., H460 tumor bearing mice

- activity excreted via the kidneys [1]: 67.9%
- uptake in the tumor [1]: 10.29 % injected dose per gram of tumor
- retention of activity in the tumor (4 h p.i., H460 tumor bearing mice): 5.85 % injected dose per gram of tumor
- tumor to blood ratio (H460 tumor bearing mice): 34.7
- tumor to muscle ratio (H460 tumor bearing mice): 62.6
- Tumor/Tissue bone (timepoint 0.25 h): 18.92
- Tumor/Tissue brain (timepoint 0.25 h): 58.25
- Tumor/Tissue heart (timepoint 0.25 h): 17.61
- Tumor/Tissue kidney (timepoint 0.25 h): 0.60
- Tumor/Tissue muscle (timepoint 0.25 h): 28.44
- Tumor/Tissue skin (timepoint 0.25 h): 3.82
- biodistribution adrenals (timepoint 0.25 h): 1.18 % Dosis/g
- biodistribution blood (timepoint 0.25 h): 1.36 % Dosis/g
- biodistribution bone (timepoint 0.25 h): 0.57 % Dosis/g
- biodistribution brain (timepoint 0.25 h): 0.18 % Dosis/g
- biodistribution fat (timepoint 0.25 h): 0.25 % Dosis/g
- biodistribution gallbladder (timepoint 0.25 h): 1.08 % Dosis/g
- biodistribution heart (timepoint 0.25 h): 0.60 % Dosis/g
- biodistribution intestine (timepoint 0.25 h): 2.34 % Dosis/g
- biodistribution kidney (timepoint 0.25 h): 17.49 % Dosis/g
- biodistribution lung (timepoint 0.25 h): 3.22 % Dosis/g
- biodistribution muscle (timepoint 0.25 h): 0.37 % Dosis/g
- biodistribution ovaries (timepoint 0.25 h): 4.04 % Dosis/g
- biodistribution pancreas (timepoint 0.25 h): 26.85 % Dosis/g
- biodistribution skin (timepoint 0.25 h): 2.82 % Dosis/g
- biodistribution spleen (timepoint 0.25 h): 5.15 % Dosis/g
- biodistribution stomach (timepoint 0.25 h): 10.27 % Dosis/g
- biodistribution tail (timepoint 0.25 h): 8.12 % Dosis/g
- biodistribution thyroid (timepoint 0.25 h): 2.05 % Dosis/g
- biodistribution tumor (timepoint 0.25 h): 10.58 % Dosis/g
- biodistribution uterus (timepoint 0.25 h): 4.37 % Dosis/g
- summary: urine (timepoint 0.25 h): 30.17
- summary: carcass (timepoint 0.25 h): 18.07
- summary: organs (timepoint 0.25 h): 39.99
- summary: recovery (timepoint 0.25 h): 88.24
- Tumor/Tissue bone (timepoint 0.5 h): 15.47
- Tumor/Tissue brain (timepoint 0.5 h): 69.00
- Tumor/Tissue heart (timepoint 0.5 h): 34.35
- Tumor/Tissue kidney (timepoint 0.5 h): 1.43
- Tumor/Tissue muscle (timepoint 0.5 h): 54.98
- Tumor/Tissue skin (timepoint 0.5 h): 3.20
- biodistribution adrenals (timepoint 0.5 h): 0.67 % Dosis/g
- biodistribution blood (timepoint 0.5 h): 0.45 % Dosis/g
- biodistribution bone (timepoint 0.5 h): 0.53 % Dosis/g
- biodistribution brain (timepoint 0.5 h): 0.12 % Dosis/g
- biodistribution fat (timepoint 0.5 h): 0.18 % Dosis/g
- biodistribution gallbladder (timepoint 0.5 h): 0.47 % Dosis/g
- biodistribution heart (timepoint 0.5 h): 0.24 % Dosis/g
- biodistribution intestine (timepoint 0.5 h): 1.96 % Dosis/g
- biodistribution kidney (timepoint 0.5 h): 5.64 % Dosis/g
- biodistribution lung (timepoint 0.5 h): 1.62 % Dosis/g
- biodistribution muscle (timepoint 0.5 h): 0.15 % Dosis/g
- biodistribution ovaries (timepoint 0.5 h): 6.23 % Dosis/g
- biodistribution pancreas (timepoint 0.5 h): 21.26 % Dosis/g
- biodistribution skin (timepoint 0.5 h): 2.51 % Dosis/g
- biodistribution spleen (timepoint 0.5 h): 4.37 % Dosis/g
- biodistribution stomach (timepoint 0.5 h): 7.82 % Dosis/g
- biodistribution tail (timepoint 0.5 h): 5.67 % Dosis/g
- biodistribution thyroid (timepoint 0.5 h): 1.58 % Dosis/g
- biodistribution tumor (timepoint 0.5 h): 8.17 % Dosis/g
- biodistribution uterus (timepoint 0.5 h): 2.63 % Dosis/g
- summary: faeces (timepoint 0.5 h): 0%
- summary: urine (timepoint 0.5 h): 48.69
- summary: carcass (timepoint 0.5 h): 10.51
- summary: organs (timepoint 0.5 h): 32.54
- summary: recovery (timepoint 0.5 h): 91.75
- Tumor/Tissue bone (timepoint 1.0 h): 22.16
- Tumor/Tissue brain (timepoint 1.0 h): 93.25
- Tumor/Tissue heart (timepoint 1.0 h): 57.45
- Tumor/Tissue kidney (timepoint 1.0 h): 3.31
- Tumor/Tissue muscle (timepoint 1.0 h): 62.55
- Tumor/Tissue skin (timepoint 1.0 h): 4.24
- biodistribution adrenals (timepoint 1.0 h): 0.61 % Dosis/g
- biodistribution blood (timepoint 1.0 h): 0.30 % Dosis/g
- biodistribution bone (timepoint 1.0 h): 0.46 % Dosis/g
- biodistribution brain (timepoint 1.0 h): 0.11 % Dosis/g
- biodistribution fat (timepoint 1.0 h): 0.14 % Dosis/g
- biodistribution gallbladder (timepoint 1.0 h): 0.57 % Dosis/g
- biodistribution heart (timepoint 1.0 h): 0.18 % Dosis/g
- biodistribution intestine (timepoint 1.0 h): 1.77 % Dosis/g
- biodistribution kidney (timepoint 1.0 h): 3.10 % Dosis/g
- biodistribution lung (timepoint 1.0 h): 1.43 % Dosis/g
- biodistribution muscle (timepoint 1.0 h): 0.16 % Dosis/g
- biodistribution ovaries (timepoint 1.0 h): 1.86 % Dosis/g
- biodistribution pancreas (timepoint 1.0 h): 16.68 % Dosis/g
- biodistribution skin (timepoint 1.0 h): 2.43 % Dosis/g
- biodistribution spleen (timepoint 1.0 h): 2.87 % Dosis/g
- biodistribution stomach (timepoint 1.0 h): 4.47 % Dosis/g
- biodistribution tail (timepoint 1.0 h): 2.33 % Dosis/g
- biodistribution thyroid (timepoint 1.0 h): 1.57 % Dosis/g
- biodistribution tumor (timepoint 1.0 h): 10.29 % Dosis/g
- biodistribution uterus (timepoint 1.0 h): 2.45 % Dosis/g
- summary: faeces (timepoint 1.0 h): 0%
- summary: urine (timepoint 1.0 h): 67.90
- summary: carcass (timepoint 1.0 h): 9.28
- summary: organs (timepoint 1.0 h): 25.76
- summary: recovery (timepoint 1.0 h): 102.93
- Tumor/Tissue bone (timepoint 2.0 h): 18.25
- Tumor/Tissue brain (timepoint 2.0 h): 87.08
- Tumor/Tissue heart (timepoint 2.0 h): 54.23
- Tumor/Tissue kidney (timepoint 2.0 h): 6.15
- Tumor/Tissue muscle (timepoint 2.0 h): 62.45
- Tumor/Tissue skin (timepoint 2.0 h): 3.59
- biodistribution adrenals (timepoint 2.0 h): 0.52 % Dosis/g
- biodistribution blood (timepoint 2.0 h): 0.15 % Dosis/g
- biodistribution bone (timepoint 2.0 h): 0.40 % Dosis/g
- biodistribution brain (timepoint 2.0 h): 0.08 % Dosis/g
- biodistribution fat (timepoint 2.0 h): 0.07 % Dosis/g
- biodistribution gallbladder (timepoint 2.0 h): 0.48 % Dosis/g
- biodistribution heart (timepoint 2.0 h): 0.13 % Dosis/g
- biodistribution intestine (timepoint 2.0 h): 1.23 % Dosis/g
- biodistribution kidney (timepoint 2.0 h): 1.17 % Dosis/g
- biodistribution lung (timepoint 2.0 h): 1.04 % Dosis/g
- biodistribution muscle (timepoint 2.0 h): 0.11 % Dosis/g
- biodistribution ovaries (timepoint 2.0 h): 1.58 % Dosis/g
- biodistribution pancreas (timepoint 2.0 h): 7.70 % Dosis/g
- biodistribution skin (timepoint 2.0 h): 1.97 % Dosis/g
- biodistribution stomach (timepoint 2.0 h): 3.35 % Dosis/g
- biodistribution tail (timepoint 2.0 h): 1.64 % Dosis/g
- biodistribution thyroid (timepoint 2.0 h): 1.37 % Dosis/g
- biodistribution tumor (timepoint 2.0 h): 6.72 % Dosis/g
- biodistribution uterus (timepoint 2.0 h): 2.72 % Dosis/g
- summary: faeces (timepoint 2.0 h): 0.01%
- summary: urine (timepoint 2.0 h): 68.67
- summary: carcass (timepoint 2.0 h): 9.12
- summary: organs (timepoint 2.0 h): 17.68
- summary: recovery (timepoint 2.0 h): 94.72
- Tumor/Tissue bone (timepoint 4.0 h): 15.04
- Tumor/Tissue brain (timepoint 4.0 h): 83.21
- Tumor/Tissue heart (timepoint 4.0 h): 68.93
- Tumor/Tissue kidney (timepoint 4.0 h): 8.78
- Tumor/Tissue muscle (timepoint 4.0 h): 64.19
- Tumor/Tissue skin (timepoint 4.0 h): 5.40
- biodistribution adrenals (timepoint 4.0 h): 0.61 % Dosis/g
- biodistribution blood (timepoint 4.0 h): 0.10 % Dosis/g
- biodistribution bone (timepoint 4.0 h): 0.39 % Dosis/g
- biodistribution brain (timepoint 4.0 h): 0.08 % Dosis/g
- biodistribution fat (timepoint 4.0 h): 0.06 % Dosis/g
- biodistribution gallbladder (timepoint 4.0 h): 0.70 % Dosis/g
- biodistribution heart (timepoint 4.0 h): 0.08 % Dosis/g
- biodistribution intestine (timepoint 4.0 h): 0.97 % Dosis/g
- biodistribution kidney (timepoint 4.0 h): 0.72 % Dosis/g
- biodistribution lung (timepoint 4.0 h): 0.81 % Dosis/g
- biodistribution muscle (timepoint 4.0 h): 0.09 % Dosis/g
- biodistribution ovaries (timepoint 4.0 h): 2.18 % Dosis/g
- biodistribution pancreas (timepoint 4.0 h): 4.51 % Dosis/g
- biodistribution skin (timepoint 4.0 h): 1.31 % Dosis/g
- biodistribution stomach (timepoint 4.0 h): 1.27 % Dosis/g
- biodistribution tail (timepoint 4.0 h): 3.43 % Dosis/g
- biodistribution thyroid (timepoint 4.0 h): 0.98 % Dosis/g
- biodistribution tumor (timepoint 4.0 h): 5.85 % Dosis/g
- biodistribution uterus (timepoint 4.0 h): 1.41 % Dosis/g
- summary: faeces (timepoint 4.0 h): 2.1%
- summary: urine (timepoint 4.0 h): 77.27
- summary: carcass (timepoint 4.0 h): 4.03
- summary: organs (timepoint 4.0 h): 12.00
- summary: recovery (timepoint 4.0 h): 94.87
Compound: N[C@@H](CCC(CCC[18F])C(=O)O)C(=O)O (stereo partly drawn) [(2S)-2-amino-5-[3-[^18F]fluoropropyl]hexanedioic acid]

From patent publication US9017645B2, “Homoglutamic acid derivatives” (Piramal Imaging SA, priority 2009, dated 2015)
